Data as given in ChEMBL document CHEMBL1201862, “PubChem BioAssay data set” (2004).
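Exposure lasted 48 hours, with cells grown in 96-well plates and compounds tested at five concentrations. GI50: concentration for 50% inhibition of growth.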 Calls of active or inactive are those of the source. No stated cut-off is given here; in the data, active = GI50 up to about 1.1 µM and inactive = higher.

Assays:
Test in all cases: NCI anticancer screen, dose series, 48 h
[1] = system: 786-0
[2] = system: A498
[3] = system: ACHN
[4] = system: CAKI-1
[5] = system: HCT-15
[6] = system: HL-60
[7] = system: LOX IMVI
[8] = system: MDA-MB-231
[9] = system: MDA-N
[10] = system: Malme-3M
[11] = system: NCI-H226
[12] = system: NCI-H460
[13] = system: NCI/ADR-RES
[14] = system: SK-MEL-5
[15] = system: SNB-75
[16] = system: SR
[17] = system: T47D
[18] = system: U-251
[19] = system: Hs-578T
[20] = system: RPMI-8226

Structure (SMILES)	GI50 [1]	GI50 [2]	GI50 [3]	GI50 [4]	GI50 [5]	GI50 [6]	GI50 [7]	GI50 [8]	GI50 [9]	GI50 [10]	GI50 [11]	GI50 [12]	GI50 [13]	GI50 [14]	GI50 [15]	GI50 [16]	GI50 [17]	GI50 [18]	GI50 [19]	GI50 [20]
COC(=O)c1cc(O)nc(O)n1	> 100 µM (inactive)	> 100 µM (inactive)	> 100 µM (inactive)	> 100 µM (inactive)	> 100 µM	> 100 µM (inactive)	> 100 µM (inactive)	> 100 µM (inactive)	> 100 µM (inactive)	> 100 µM (inactive)	> 100 µM (inactive)	> 100 µM (inactive)	> 100 µM (inactive)	> 100 µM (inactive)	> 100 µM (inactive)	> 100 µM (inactive)	> 100 µM (inactive)	> 100 µM (inactive)		
COC1(OC)C=CC2C1C1C=CC2C1(OC)OC (stereo not drawn)	> 100 µM (inactive)	> 100 µM (inactive)	> 100 µM (inactive)	> 100 µM (inactive)	> 100 µM		> 100 µM (inactive)	> 100 µM (inactive)		> 100 µM (inactive)	> 100 µM (inactive)	> 100 µM (inactive)	> 100 µM (inactive)	> 100 µM (inactive)	> 100 µM (inactive)	> 100 µM (inactive)	> 100 µM (inactive)	> 100 µM (inactive)	> 100 µM (inactive)	> 100 µM (inactive)
Clc1sc(Cl)c2c1[C@H](Br)C[C@@H]2Cl	32.9 µM (inactive)		18.8 µM (inactive)	26.2 µM (inactive)	17.1 µM		18.2 µM (inactive)	21.4 µM (inactive)	41.7 µM (inactive)	21.9 µM (inactive)		41.6 µM (inactive)	17.7 µM (inactive)	46.9 µM (inactive)	> 100 µM (inactive)	15.7 µM (inactive)	36.4 µM (inactive)	27.7 µM (inactive)	22.8 µM (inactive)	30.2 µM (inactive)
CC1(C)CNC(=O)C2(CCCO2)CNC(C)(C)CNC(=O)C2(CCCO2)CN1 (stereo not drawn)	> 10 µM (inactive)		> 10 µM (inactive)	> 10 µM (inactive)	> 10 µM	> 10 µM (inactive)	> 10 µM (inactive)	> 10 µM (inactive)		> 10 µM (inactive)			> 10 µM (inactive)	> 10 µM (inactive)	> 10 µM (inactive)	> 10 µM (inactive)	> 10 µM (inactive)	> 10 µM (inactive)	> 10 µM (inactive)	> 10 µM (inactive)
Cc1n[nH]c(=O)n1-n1cccc1	> 100 µM (inactive)	> 100 µM (inactive)	> 100 µM (inactive)	> 100 µM (inactive)	> 100 µM		> 100 µM (inactive)	> 100 µM (inactive)	> 100 µM (inactive)	> 100 µM (inactive)	> 100 µM (inactive)	> 100 µM (inactive)	> 100 µM (inactive)	> 100 µM (inactive)	> 100 µM (inactive)		> 100 µM (inactive)	> 100 µM (inactive)	> 100 µM (inactive)	> 100 µM (inactive)
CC1=C(C)C(=O)C2=C(OCCO2)C1=O	22.5 µM (inactive)	19.5 µM (inactive)	25.2 µM (inactive)	17.6 µM (inactive)	17.5 µM	2.96 µM (inactive)	12.1 µM (inactive)	4.47 µM (inactive)	10.3 µM (inactive)	15.9 µM (inactive)	24.3 µM (inactive)	20.6 µM (inactive)	3.54 µM (inactive)	16 µM (inactive)		4.09 µM (inactive)	2.39 µM (inactive)	16.1 µM (inactive)		2.34 µM (inactive)
CCOC(=O)Cn1c(C)nc2nn(Cc3ccccc3)cc2c1=O	> 100 µM (inactive)	> 100 µM (inactive)	> 100 µM (inactive)		> 100 µM			> 100 µM (inactive)	> 100 µM (inactive)	> 100 µM (inactive)	> 100 µM (inactive)	> 100 µM (inactive)	> 100 µM (inactive)	> 100 µM (inactive)			> 100 µM (inactive)	> 100 µM (inactive)	> 100 µM (inactive)	
O=C(NC(Cc1c[nH]c2ccccc12)C(=O)Nc1ccc(Br)cc1)OCc1ccccc1 (stereo not drawn)	10.8 µM (inactive)	11.4 µM (inactive)	10.2 µM (inactive)	5.27 µM (inactive)	11.1 µM	3.97 µM (inactive)	9.06 µM (inactive)	10.2 µM (inactive)		11.4 µM (inactive)	14.5 µM (inactive)	6.22 µM (inactive)	12.1 µM (inactive)	10.7 µM (inactive)	14.7 µM (inactive)	6.95 µM (inactive)	10 µM (inactive)	12 µM (inactive)	18.9 µM (inactive)	6.38 µM (inactive)
